This is an account of results in article PMC7351949, “Molecular basis for the distinct functions of redox-active and FeS-transfering glutaredoxins” (Nature Communications, 2020).

The target in experiment [1] is T1, Grx5 (Homo sapiens, UniProt Q86SX6).
T1 construct: gene GLRX5; transit peptide removed (forward primer encodes M-GSGAG...), pET15b, His-tagged, recombinant from E. coli, IMAC purified; dimeric as Fe2S2 holo-complex
T1 sequence (Q86SX6 33-157): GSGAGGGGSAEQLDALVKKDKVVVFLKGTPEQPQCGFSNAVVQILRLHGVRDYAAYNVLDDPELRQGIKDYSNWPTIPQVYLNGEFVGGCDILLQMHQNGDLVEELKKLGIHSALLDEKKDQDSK
The experiment is described as follows: UV/Vis spectroscopy of reconstituted holo-complex. The following applies: bridges a dimer, co-ligated by two GSH; reconstituted with GSH, cysteine, iron and IscS, pH 8.0. The format is binding.

The target of experiment [2] is T2, Grx2 (Homo sapiens, UniProt Q9NS18).
T2 construct: gene GLRX2; Grx2c, His-tagged, recombinant from E. coli, IMAC purified; monomeric apo form, dimeric as Fe2S2 holo-complex
T2 sequence (Q9NS18 1-165 isoform Q9NS18-2): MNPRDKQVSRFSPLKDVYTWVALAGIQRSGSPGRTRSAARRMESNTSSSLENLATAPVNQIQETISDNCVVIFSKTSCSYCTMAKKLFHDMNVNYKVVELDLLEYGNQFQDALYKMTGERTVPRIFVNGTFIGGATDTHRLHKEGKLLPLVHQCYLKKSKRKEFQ
Kind of experiment: UV/Vis spectroscopy of reconstituted holo-complex. The format is binding. Particulars: bridges a dimer, co-ligated by two GSH; reconstituted with GSH, cysteine, iron and IscS, pH 8.0.

The target of experiment [3] is T3, AtGrxC1 (Arabidopsis thaliana, UniProt Q8L8T2).
T3 construct: gene GRXC1; His-tagged, recombinant, IMAC purified
T3 sequence (Q8L8T2 whole entry): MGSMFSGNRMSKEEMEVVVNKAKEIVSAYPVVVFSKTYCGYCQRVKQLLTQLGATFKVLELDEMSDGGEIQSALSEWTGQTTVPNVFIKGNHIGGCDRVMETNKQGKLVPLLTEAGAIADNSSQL
Kind of experiment: HED assay, NADPH / glutathione reductase coupled. The format is biochemical. Particulars: read-out: HED assay / Km app (HED) / μM; 1 mM GSH, 200 µM NADPH, yeast glutathione reductase, 100 mM potassium phosphate pH 7.8; actual substrate is the mixed disulfide βME-SG formed from HED and GSH. The text has this: HED assay, NADPH / glutathione reductase coupled on AtGrxC1

Consider `[S]1[Fe][S][Fe]1` [Fe2S2 cluster], for which the “UV/Vis spectroscopy of reconstituted holo-complex” value in experiment [1] and in experiment [2] was “The UV/VIS spectra (Fig. 4a) demonstrate the ability of all proteins to form FeS” in each case.

Take `OCCSSCCO` [HED]: in experiment [3], the Km worked out at 773 ± 164 µM.
